Laboratory results: patent publication US12498382B2, “Biomarkers for vitiligo” (INCYTE CORPORATION, priority 2019, dated 2025)

Test system: HaCaT cells
Assay: Concentrations of inflammatory mediators produced by HaCaT cells stimulated with TNFα and IFNγ in presence/absence of JAK inhibitors (ProCarta)
Format: cell-based, human
Description: After 48 hours, cell culture media was removed from 24 well plates and replaced with 250 uL of media containing serial diluted drug, then incubated for 15 minutes at 37° C./5% CO2. […] The final concentration of Recombinant Human Interferon gamma and Recombinant Human Tumor Necrosis Factor alpha was 25 ng/mL of each cytokine. Cytokine stimulation added to wells containing drug brought the final concentrations for each drug treatment to 25 nM, 50 nM, 100 nM, and 200 nM. Treated plates were mixed by gentle agitation for 30 seconds then incubated for 24 hours at 37° C./5% CO2. At the end of the 24 hour incubation media was immediately removed from each plate.
Media was incubated with antibody conjugated beads designed to bind to the epitopes of specific target proteins and identify the bound protein through the bead's distinctive spectral pattern. Biotinylated detection antibodies, designed to bind to different epitopes of the same target proteins, and Streptavidin-PE are added to assay plates to quantify the amount of the target proteins. Assay plates were read on the Luminex 200 and data were expressed as Net Median Fluorescence Intensity. […] The concentration of each protein was extrapolated from the antigen standard curve and concentrations were expressed as pg/mL (Table 15).

[1] = TNFα+IFNγ 25 ng/mL each, drug conc. 1st of 4 rows (cell not shown; prob. 25 nM)
[2] = TNFα+IFNγ 25 ng/mL each, drug conc. 2nd of 4 rows (cell not shown; prob. 50 nM)
[3] = TNFα+IFNγ 25 ng/mL each, drug conc. 3rd of 4 rows (cell not shown; prob. 100 nM)
[4] = TNFα+IFNγ 25 ng/mL each, drug conc. 4th of 4 rows (cell not shown; prob. 200 nM)
[5] = drug present, concentration not given

Cc1n[nH]c(C)c1-c1cnn(C2(CC#N)CN(c3cc(F)c(C(=O)N[C@@H](C)C(F)(F)F)cc3F)C2)c1 [Cpd C, 4-[3-(Cyanomethyl)-3-(3′,5′-dimethyl-1H,1′H-4,4′-bipyrazol-1-yl)azetidin-1-yl]-2,5-difluoro-N-[(1S)-2,2,2-trifluoro-1-methylethyl]benzamide]
IFN gamma concentration [1]: 27765.18 ± 4653.71 pg/mL
IL1RA concentration [1]: 6175.66 ± 277.7 pg/mL
IL1 alpha concentration [1]: 7.74 ± 0.36 pg/mL
IL1 beta concentration [1]: 8.88 ± 0.35 pg/mL
IL2 concentration [1]: 31.39 ± 1.44 pg/mL
IL4 concentration [1]: 8.31 ± 2.19 pg/mL
IL5 concentration [1]: 27.03 ± 1.35 pg/mL
IL6 concentration [1]: 774.87 ± 31.09 pg/mL
IL7 concentration [1]: 2.18 ± 0.15 pg/mL
IL8 concentration [1]: 2879.27 ± 117.07 pg/mL
IL9 concentration [1]: 3.37 ± 0.33 pg/mL
IL10 concentration [1]: 0.75 ± 0.05 pg/mL
IL12p70 concentration [1]: 1.97 ± 0.22 pg/mL
IL13 concentration [1]: 2.93 ± 0.41 pg/mL
IL15 concentration [1]: 3.97 ± 0.71 pg/mL
IL17A concentration [1]: 4.27 ± 0.42 pg/mL
IL18 concentration [1]: 163.63 ± 3.29 pg/mL
IL21 concentration [1]: 2.71 ± 0.18 pg/mL
IL22 concentration [1]: 7.15 ± 1.16 pg/mL
IL23 concentration [1]: 7.43 ± 0 pg/mL
IL27 concentration [1]: 8.88 ± 1.64 pg/mL
IL31 concentration [1]: 3.52 ± 0.53 pg/mL
IP-10/CXCL10 concentration [1]: 3999.9 ± 370.53 pg/mL
LIF concentration [1]: 67.72 ± 2.04 pg/mL
MCP1 concentration [1]: 15200 ± 0 pg/mL
MIP1 alpha concentration [1]: 101.71 ± 3.84 pg/mL
MIP1 beta concentration [1]: 318.92 ± 6.03 pg/mL
PDGF-BB concentration [1]: 4.93 ± 0.21 pg/mL
PIGF-1 concentration [1]: 58.04 ± 2.17 pg/mL
RANTES concentration [1]: 216.88 ± 13.45 pg/mL
SCF concentration [1]: 4.34 ± 0.19 pg/mL
SDF-1 alpha concentration [1]: 3503.89 ± 90.15 pg/mL
TNF alpha concentration [1]: 11212.78 ± 1168.53 pg/mL
TNF beta concentration [1]: 5.68 ± 1.4 pg/mL
VEGF-A concentration [1]: 1261.47 ± 37.95 pg/mL
VEGF-D concentration [1]: 8.6 ± 0.74 pg/mL
IFN gamma concentration [2]: 23531.94 ± 2644.35 pg/mL
IL1RA concentration [2]: 6065 ± 325.72 pg/mL
IL1 alpha concentration [2]: 7.01 ± 0.39 pg/mL
IL1 beta concentration [2]: 8.72 ± 0.47 pg/mL
IL2 concentration [2]: 29.87 ± 1.38 pg/mL
IL4 concentration [2]: 5.24 ± 0.99 pg/mL
IL5 concentration [2]: 26.49 ± 1.58 pg/mL
IL6 concentration [2]: 710.89 ± 36.7 pg/mL
IL7 concentration [2]: 2.02 ± 0.07 pg/mL
IL8 concentration [2]: 2869.74 ± 167.65 pg/mL
IL9 concentration [2]: 3.7 ± 0^ pg/mL
IL10 concentration [2]: 0.74 ± 0.06 pg/mL
IL12p70 concentration [2]: 1.72 ± 0.2 pg/mL
IL13 concentration [2]: 2.24 ± 0.28 pg/mL
IL15 concentration [2]: 2.29 ± 0.44 pg/mL
IL17A concentration [2]: 3.48 ± 0.39 pg/mL
IL18 concentration [2]: 156.41 ± 4.19 pg/mL
IL21 concentration [2]: 2.88 ± 0 pg/mL
IL22 concentration [2]: 8.03 ± 0.87 pg/mL
IL23 concentration [2]: 7.43 ± 0 pg/mL
IL27 concentration [2]: 5.98 ± 1.08 pg/mL
IL31 concentration [2]: 3.36 ± 0.27 pg/mL
IP-10/CXCL10 concentration [2]: 3665.2 ± 277.11 pg/mL
LIF concentration [2]: 67.64 ± 3.17 pg/mL
MCP1 concentration [2]: 33175.72 ± 17975.72 pg/mL
MIP1 alpha concentration [2]: 104.54 ± 6.56 pg/mL
MIP1 beta concentration [2]: 318.37 ± 9.88 pg/mL
PDGF-BB concentration [2]: 5.22 ± 0.25 pg/mL
PIGF-1 concentration [2]: 55.59 ± 2.74 pg/mL
RANTES concentration [2]: 201.93 ± 15.44 pg/mL
SCF concentration [2]: 4.25 ± 0.22 pg/mL
SDF-1 alpha concentration [2]: 3471.01 ± 141.19 pg/mL
TNF alpha concentration [2]: 10367.04 ± 1016.28 pg/mL
TNF beta concentration [2]: 5.54 ± 0.56 pg/mL
VEGF-A concentration [2]: 1268.91 ± 59.05 pg/mL
VEGF-D concentration [2]: 8.44 ± 0.66 pg/mL
IFN gamma concentration [3]: 23113.79 ± 2086.62 pg/mL
IL1RA concentration [3]: 6167.55 ± 367.54 pg/mL
IL1 alpha concentration [3]: 7.27 ± 0.47 pg/mL
IL1 beta concentration [3]: 8.55 ± 0.34 pg/mL
IL2 concentration [3]: 30.51 ± 1.23 pg/mL
IL4 concentration [3]: 6.26 ± 1.35 pg/mL
IL5 concentration [3]: 28.64 ± 1.4 pg/mL
IL6 concentration [3]: 690.4 ± 35.25 pg/mL
IL7 concentration [3]: 2.04 ± 0.11 pg/mL
IL8 concentration [3]: 3035.52 ± 206.85 pg/mL
IL9 concentration [3]: 4.16 ± 0.46 pg/mL
IL10 concentration [3]: 0.75 ± 0.07 pg/mL
IL12p70 concentration [3]: 1.75 ± 0.23 pg/mL
IL13 concentration [3]: 2.58 ± 0.36 pg/mL
IL15 concentration [3]: 2.42 ± 0.54 pg/mL
IL17A concentration [3]: 3.77 ± 0.42 pg/mL
IL18 concentration [3]: 162.12 ± 5.14 pg/mL
IL21 concentration [3]: 2.6 ± 0.28 pg/mL
IL22 concentration [3]: 7.31 ± 1.07 pg/mL
IL23 concentration [3]: 6.7 ± 0.73 pg/mL
IL27 concentration [3]: 5.7 ± 1.04 pg/mL
IL31 concentration [3]: 2.95 ± 0.38 pg/mL
IP-10/CXCL10 concentration [3]: 3860.41 ± 323.05 pg/mL
LIF concentration [3]: 73.12 ± 3.62 pg/mL
MCP1 concentration [3]: 26334.64 ± 11134.64 pg/mL
MIP1 alpha concentration [3]: 96.4 ± 4.18 pg/mL
MIP1 beta concentration [3]: 324.42 ± 8.52 pg/mL
PDGF-BB concentration [3]: 5.57 ± 0.23 pg/mL
PIGF-1 concentration [3]: 58.69 ± 3.37 pg/mL
RANTES concentration [3]: 207.79 ± 17.38 pg/mL
SCF concentration [3]: 4.59 ± 0.25 pg/mL
SDF-1 alpha concentration [3]: 3521.98 ± 154.06 pg/mL
TNF alpha concentration [3]: 10632.61 ± 795.65 pg/mL
TNF beta concentration [3]: 4.6 ± 0.46 pg/mL
VEGF-A concentration [3]: 1335.99 ± 63.65 pg/mL
VEGF-D concentration [3]: 9.25 ± 0.7 pg/mL
IFN gamma concentration [4]: 25179.01 ± 3591.71 pg/mL
IL1RA concentration [4]: 5756.59 ± 328.24 pg/mL
IL1 alpha concentration [4]: 6.45 ± 0.38 pg/mL
IL1 beta concentration [4]: 8.71 ± 0.5 pg/mL
IL2 concentration [4]: 30.68 ± 1.62 pg/mL
IL4 concentration [4]: 7.07 ± 0.88 pg/mL
IL5 concentration [4]: 27.1 ± 1.76 pg/mL
IL7 concentration [4]: 1.91 ± 0.11 pg/mL
IL8 concentration [4]: 2874.26 ± 169.59 pg/mL
IL9 concentration [4]: 3.66 ± 0.04 pg/mL
IL10 concentration [4]: 0.84 ± 0.08 pg/mL
IL12p70 concentration [4]: 1.79 ± 0.23 pg/mL
IL13 concentration [4]: 2.12 ± 0.3 pg/mL
IL15 concentration [4]: 2.32 ± 0.44 pg/mL
IL17A concentration [4]: 4 ± 0.34 pg/mL
IL18 concentration [4]: 157.36 ± 4.56 pg/mL
IL21 concentration [4]: 2.45 ± 0.29 pg/mL
IL22 concentration [4]: 8.24 ± 0.53 pg/mL
IL23 concentration [4]: 6.95 ± 0.48 pg/mL
IL27 concentration [4]: 6.59 ± 0.99 pg/mL
IL31 concentration [4]: 3.34 ± 0.69 pg/mL
IP-10/CXCL10 concentration [4]: 3835.78 ± 304.58 pg/mL
LIF concentration [4]: 70.66 ± 3.22 pg/mL
MCP1 concentration [4]: 19811.45 ± 4611.45 pg/mL
MIP1 alpha concentration [4]: 98.72 ± 3.87 pg/mL
MIP1 beta concentration [4]: 318.74 ± 8.72 pg/mL
PDGF-BB concentration [4]: 5.52 ± 0.27 pg/mL
PIGF-1 concentration [4]: 55.71 ± 3.28 pg/mL
RANTES concentration [4]: 189.62 ± 13.78 pg/mL
SCF concentration [4]: 4.23 ± 0.15 pg/mL
SDF-1 alpha concentration [4]: 3436.48 ± 134.91 pg/mL
TNF alpha concentration [4]: 10619.05 ± 1276.72 pg/mL
TNF beta concentration [4]: 3.78 ± 0.57 pg/mL
VEGF-A concentration [4]: 1262.36 ± 57.42 pg/mL
VEGF-D concentration [4]: 8.82 ± 0.7 pg/mL
IL1RA concentration [5]: 488.84 ± 49.85 pg/mL
IL1 alpha concentration [5]: 0.3 ± 0.05 pg/mL
IL1 beta concentration [5]: 0.93 ± 0.17 pg/mL
IL2 concentration [5]: 2.65 ± 0.28 pg/mL
IL4 concentration [5]: 4.89 ± 1.18 pg/mL
IL5 concentration [5]: 3.04 ± 0.41 pg/mL
IL6 concentration [5]: 28.49 ± 2.89 pg/mL
IL7 concentration [5]: 3.35 ± 0.18 pg/mL
IL8 concentration [5]: 269.53 ± 10.35 pg/mL
IL9 concentration [5]: 3.65 ± 0.2 pg/mL
IL10 concentration [5]: 0.4 ± 0.11 pg/mL
IL12p70 concentration [5]: 1.52 ± 0.29 pg/mL
IL13 concentration [5]: 1.08 ± 0.13 pg/mL
IL15 concentration [5]: 1.98 ± 0.49 pg/mL
IL17A concentration [5]: 1.39 ± 0.22 pg/mL
IL18 concentration [5]: 5.89 ± 0.58 pg/mL
IL21 concentration [5]: 2.33 ± 0.29 pg/mL
IL22 concentration [5]: 7.16 ± 1.16 pg/mL
IL23 concentration [5]: 6.54 ± 1 pg/mL
IL27 concentration [5]: 9.17 ± 2.36 pg/mL
IL31 concentration [5]: 3.28 ± 0.31 pg/mL
IP-10/CXCL10 concentration [5]: 19.83 ± 0.4 pg/mL
LIF concentration [5]: 24.24 ± 1.14 pg/mL
MCP1 concentration [5]: 1158.23 ± 47.13 pg/mL
MIP1 alpha concentration [5]: 2.9 ± 0.21 pg/mL
MIP1 beta concentration [5]: 117.97 ± 3.75 pg/mL
PDGF-BB concentration [5]: 2.19 ± 0.17 pg/mL
PIGF-1 concentration [5]: 21.19 ± 1.05 pg/mL
RANTES concentration [5]: 8.61 ± 0.52 pg/mL
SCF concentration [5]: 2 ± 0.1 pg/mL
SDF-1 alpha concentration [5]: 1028.82 ± 43.21 pg/mL
TNF alpha concentration [5]: 2.82 ± 0.72 pg/mL
TNF beta concentration [5]: 4.5 ± 0.5 pg/mL
VEGF-A concentration [5]: 609.51 ± 15.83 pg/mL
VEGF-D concentration [5]: 3.63 ± 0.6 pg/mL
